Tests used:
Experiment in all cases: Chequerboard MIC/synergy testing of zidovudine and doxycycline, log phase bacteria
Type in all cases: cell-based
[1] = system: BAA2469 NDM-1 Escherichia coli; details: strain BAA2469, doxycycline alone
Description: (§1) Synergy in the context of antimicrobial drugs is measured in a number of ways that conform to the generally accepted opinion that “synergy is an effect greater than additive”. One of the ways to assess whether synergy has been observed is to use the “chequerboard” technique. This is a well-accepted method that leads to the generation of a value called the fractional inhibitory concentration index (FICI). Orhan et al., J. Clin. Microbiol. 2005, 43(1):140 describes the chequerboard method and analysis in the paragraph bridging pages 140-141, and explains that the FICI value is a ratio of the sum of the MIC (Minimum Inhibitory Concentration) level of each individual component alone and in the mixture. The combination is considered synergistic when the ΣFIC is ≤0.5, indifferent when the ΣFIC is >0.5 but <4.0, and antagonistic when the ΣFIC is >4.0.
(§2) The chequerboard method used in Example 1 followed the protocols detailed in Antimicrob Chemo (2013) 68, 374-384. Zidovudine and doxycycline were obtained from commercially available sources. The bacteria used were BAA2469 NDM-1 Escherichia coli, BAA2470 NDM-1 Klebsiella pneumoniae, BAA2471 NDM-1 Escherichia coli, BAA2472 NDM-1 Klebsiella pneumoniae, and NCTC13443 NDM-1 Klebsiella pneumoniae. All strains were obtained from a commercial source and log phase growth of the bacteria was carried out using methods known in the art.
(§3) The effects of the combination of the present invention were examined by calculating the fractional inhibitory concentration index (FICI) of each combination, as follows:
(§4) (MIC of drug A,tested in combination)/(MIC of drug A,tested alone)+(MIC of drug B,tested in combination)/(MIC of drug B,tested alone).
(§5) The interaction of the combination was defined as showing synergy if the FICI was […], no interaction if the FICI was >0.5 but <4.0 and antagonism if the FICI was >4.0.

[2] = system: BAA2470 NDM-1 Klebsiella pneumoniae; details: strain BAA2470, doxycycline alone
Description: as §1, §2, §3, §4, §5

[3] = system: BAA2471 NDM-1 Escherichia coli; details: BAA2471, read-out: MIC Doxycycline
Description: as §1, §2, §3, §4, §5

[4] = system: BAA2472 NDM-1 Klebsiella pneumoniae; details: BAA2472, read-out: MIC Doxycycline
Description: as §1, §2, §3, §4, §5

[5] = system: NCTC13443 NDM-1 Klebsiella pneumoniae; details: strain NCTC13443, doxycycline alone
Description: as §1, §2, §3, §4, §5

Structure (SMILES): C[C@H]1c2cccc(O)c2C(=O)C2=C(O)[C@]3(O)C(=O)C(C(N)=O)=C(O)[C@@H](N(C)C)[C@@H]3[C@@H](O)[C@@H]21 [Doxycycline, (4S,4aR,5S,5aR,6R,12aR)-4-(dimethylamino)-1,5,10,11,12a-pentahydroxy-6-methyl-3,12-dioxo-4a,5,5a,6-tetrahydro-4H-tetracene-2-carboxamide]
- MIC [1]: 64 µg/mL
- MIC [2]: 64 µg/mL
- MIC [3]: 32 µg/mL
- MIC [4]: 16 µg/mL
- MIC [5]: 32 µg/mL

Source: patent US20240197767A1, “COMBINATION OF ZIDOVUDINE WITH A TETRACYCLINE ANTIBIOTIC” (Helperby Therapeutics Limited, priority 2019, published 2024)
